# Laboratory results published in publication PMC10116495 (Journal of the American Chemical Society, 2023).
# Residues, ends and D or L forms follow the SMILES beside them. *: point of attachment. Cbz = O=C(OCc1ccccc1)*
# Legend:
# NSD2 [1] = assay: MG132, MLN4924 and TAK243 inhibitor assay; type: cell-based; conditions: U2OS cells, 6 h, 10 μM MG132, 1 μM MLN4924 or 1 μM TAK243
# H3K36me2 [2] = conditions: KMS11 t(4;14) multiple myeloma cells; cited from earlier work
# NSD2-PWWP1 = target: T1, NSD2-PWWP1 (Homo sapiens, UniProt O96028); conditions: previously shown by the authors; cited from earlier work
# T1 sequence (O96028 222-286 limits assumed): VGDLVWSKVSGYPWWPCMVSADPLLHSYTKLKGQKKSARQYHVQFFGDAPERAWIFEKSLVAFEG
# NSD2 [3] = target: T2, NSD2 (Homo sapiens, UniProt O96028); assay: In-cell western; type: cell-based; conditions: U2OS cells, ICW
# T2 sequence (O96028 1-627 limits assumed): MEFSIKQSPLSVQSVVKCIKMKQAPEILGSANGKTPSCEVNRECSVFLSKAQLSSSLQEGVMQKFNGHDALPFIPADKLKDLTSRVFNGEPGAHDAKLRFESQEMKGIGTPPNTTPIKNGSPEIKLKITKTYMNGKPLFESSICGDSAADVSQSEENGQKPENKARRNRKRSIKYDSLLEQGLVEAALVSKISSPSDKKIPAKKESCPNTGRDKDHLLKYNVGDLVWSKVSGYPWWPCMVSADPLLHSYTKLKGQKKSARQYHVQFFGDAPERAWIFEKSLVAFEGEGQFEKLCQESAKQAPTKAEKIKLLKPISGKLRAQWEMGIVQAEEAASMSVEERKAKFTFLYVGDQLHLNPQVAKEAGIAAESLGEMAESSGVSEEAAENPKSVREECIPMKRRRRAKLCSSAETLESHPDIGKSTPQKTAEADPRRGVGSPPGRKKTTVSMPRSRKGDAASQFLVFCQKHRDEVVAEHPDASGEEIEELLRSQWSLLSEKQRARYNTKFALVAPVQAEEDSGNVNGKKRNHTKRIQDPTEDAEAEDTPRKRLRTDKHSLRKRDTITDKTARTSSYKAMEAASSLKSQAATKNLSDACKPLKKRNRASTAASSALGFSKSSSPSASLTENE
# NSD2-long [4] = target: T3, NSD2-long (Homo sapiens, UniProt O96028); assay: Western blot of NSD2 in U2OS cells; type: cell-based; conditions: 10 μM, without replenishing the compound
# T3 sequence (O96028 1-1365): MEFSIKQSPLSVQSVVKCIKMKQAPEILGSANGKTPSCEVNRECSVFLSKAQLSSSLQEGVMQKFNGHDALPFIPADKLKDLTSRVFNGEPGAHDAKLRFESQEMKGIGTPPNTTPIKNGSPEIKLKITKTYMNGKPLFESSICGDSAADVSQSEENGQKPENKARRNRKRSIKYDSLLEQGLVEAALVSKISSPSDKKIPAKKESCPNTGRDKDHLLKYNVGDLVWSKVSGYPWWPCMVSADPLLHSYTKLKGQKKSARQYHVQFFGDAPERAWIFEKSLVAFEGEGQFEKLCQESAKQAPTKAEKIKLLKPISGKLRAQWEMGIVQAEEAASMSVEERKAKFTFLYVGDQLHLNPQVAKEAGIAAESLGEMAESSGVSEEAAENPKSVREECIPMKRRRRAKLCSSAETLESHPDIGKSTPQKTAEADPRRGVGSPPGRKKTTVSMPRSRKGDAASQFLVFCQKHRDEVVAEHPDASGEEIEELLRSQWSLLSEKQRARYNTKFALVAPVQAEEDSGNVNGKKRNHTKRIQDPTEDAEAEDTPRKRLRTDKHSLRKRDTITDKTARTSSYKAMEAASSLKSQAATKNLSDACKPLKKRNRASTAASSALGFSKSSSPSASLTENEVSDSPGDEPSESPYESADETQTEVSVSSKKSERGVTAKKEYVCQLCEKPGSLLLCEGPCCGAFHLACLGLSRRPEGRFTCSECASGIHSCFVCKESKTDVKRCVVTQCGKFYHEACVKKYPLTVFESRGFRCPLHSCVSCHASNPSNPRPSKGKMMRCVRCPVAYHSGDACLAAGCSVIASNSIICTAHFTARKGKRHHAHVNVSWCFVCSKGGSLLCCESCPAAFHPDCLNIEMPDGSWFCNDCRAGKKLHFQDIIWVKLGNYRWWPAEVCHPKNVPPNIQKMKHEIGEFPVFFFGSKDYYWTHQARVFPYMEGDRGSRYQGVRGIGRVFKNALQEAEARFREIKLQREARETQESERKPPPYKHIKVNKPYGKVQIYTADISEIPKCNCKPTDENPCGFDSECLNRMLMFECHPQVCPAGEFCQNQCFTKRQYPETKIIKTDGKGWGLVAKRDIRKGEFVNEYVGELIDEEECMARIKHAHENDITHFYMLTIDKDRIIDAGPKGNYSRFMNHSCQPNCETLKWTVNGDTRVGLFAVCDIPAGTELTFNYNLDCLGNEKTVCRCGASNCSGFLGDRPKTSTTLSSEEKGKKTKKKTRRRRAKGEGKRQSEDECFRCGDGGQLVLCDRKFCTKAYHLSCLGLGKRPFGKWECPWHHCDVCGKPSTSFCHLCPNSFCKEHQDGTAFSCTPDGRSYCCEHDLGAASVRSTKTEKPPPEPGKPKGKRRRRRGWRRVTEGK
# [5] = target: T4, NanoLuc-NSD2-PWWP1 / HaloTag-Ubiquitin (Homo sapiens, UniProt O96028); assay: NanoBRET ubiquitination assay; type: cell-based; conditions: compared to UNC6934 or the vehicle
# T4 sequence (O96028 222-286 limits assumed): T1 sequence (O96028 222-286 limits assumed)
# NSD2 [6] = target: T2, NSD2; assay: Global proteomics; type: cell-based; conditions: U2OS cells, 5 μM, 6 h, 7863 quantifiable proteins
# NSD1 = NSD1 (Homo sapiens, UniProt Q96L73); assay: Global proteomics and immunoblotting of NSD1 in U2OS cells; type: cell-based; conditions: 5 μM, 6 h proteomics, confirmed by immunoblotting
# Sequence of NSD1 (Q96L73 whole entry): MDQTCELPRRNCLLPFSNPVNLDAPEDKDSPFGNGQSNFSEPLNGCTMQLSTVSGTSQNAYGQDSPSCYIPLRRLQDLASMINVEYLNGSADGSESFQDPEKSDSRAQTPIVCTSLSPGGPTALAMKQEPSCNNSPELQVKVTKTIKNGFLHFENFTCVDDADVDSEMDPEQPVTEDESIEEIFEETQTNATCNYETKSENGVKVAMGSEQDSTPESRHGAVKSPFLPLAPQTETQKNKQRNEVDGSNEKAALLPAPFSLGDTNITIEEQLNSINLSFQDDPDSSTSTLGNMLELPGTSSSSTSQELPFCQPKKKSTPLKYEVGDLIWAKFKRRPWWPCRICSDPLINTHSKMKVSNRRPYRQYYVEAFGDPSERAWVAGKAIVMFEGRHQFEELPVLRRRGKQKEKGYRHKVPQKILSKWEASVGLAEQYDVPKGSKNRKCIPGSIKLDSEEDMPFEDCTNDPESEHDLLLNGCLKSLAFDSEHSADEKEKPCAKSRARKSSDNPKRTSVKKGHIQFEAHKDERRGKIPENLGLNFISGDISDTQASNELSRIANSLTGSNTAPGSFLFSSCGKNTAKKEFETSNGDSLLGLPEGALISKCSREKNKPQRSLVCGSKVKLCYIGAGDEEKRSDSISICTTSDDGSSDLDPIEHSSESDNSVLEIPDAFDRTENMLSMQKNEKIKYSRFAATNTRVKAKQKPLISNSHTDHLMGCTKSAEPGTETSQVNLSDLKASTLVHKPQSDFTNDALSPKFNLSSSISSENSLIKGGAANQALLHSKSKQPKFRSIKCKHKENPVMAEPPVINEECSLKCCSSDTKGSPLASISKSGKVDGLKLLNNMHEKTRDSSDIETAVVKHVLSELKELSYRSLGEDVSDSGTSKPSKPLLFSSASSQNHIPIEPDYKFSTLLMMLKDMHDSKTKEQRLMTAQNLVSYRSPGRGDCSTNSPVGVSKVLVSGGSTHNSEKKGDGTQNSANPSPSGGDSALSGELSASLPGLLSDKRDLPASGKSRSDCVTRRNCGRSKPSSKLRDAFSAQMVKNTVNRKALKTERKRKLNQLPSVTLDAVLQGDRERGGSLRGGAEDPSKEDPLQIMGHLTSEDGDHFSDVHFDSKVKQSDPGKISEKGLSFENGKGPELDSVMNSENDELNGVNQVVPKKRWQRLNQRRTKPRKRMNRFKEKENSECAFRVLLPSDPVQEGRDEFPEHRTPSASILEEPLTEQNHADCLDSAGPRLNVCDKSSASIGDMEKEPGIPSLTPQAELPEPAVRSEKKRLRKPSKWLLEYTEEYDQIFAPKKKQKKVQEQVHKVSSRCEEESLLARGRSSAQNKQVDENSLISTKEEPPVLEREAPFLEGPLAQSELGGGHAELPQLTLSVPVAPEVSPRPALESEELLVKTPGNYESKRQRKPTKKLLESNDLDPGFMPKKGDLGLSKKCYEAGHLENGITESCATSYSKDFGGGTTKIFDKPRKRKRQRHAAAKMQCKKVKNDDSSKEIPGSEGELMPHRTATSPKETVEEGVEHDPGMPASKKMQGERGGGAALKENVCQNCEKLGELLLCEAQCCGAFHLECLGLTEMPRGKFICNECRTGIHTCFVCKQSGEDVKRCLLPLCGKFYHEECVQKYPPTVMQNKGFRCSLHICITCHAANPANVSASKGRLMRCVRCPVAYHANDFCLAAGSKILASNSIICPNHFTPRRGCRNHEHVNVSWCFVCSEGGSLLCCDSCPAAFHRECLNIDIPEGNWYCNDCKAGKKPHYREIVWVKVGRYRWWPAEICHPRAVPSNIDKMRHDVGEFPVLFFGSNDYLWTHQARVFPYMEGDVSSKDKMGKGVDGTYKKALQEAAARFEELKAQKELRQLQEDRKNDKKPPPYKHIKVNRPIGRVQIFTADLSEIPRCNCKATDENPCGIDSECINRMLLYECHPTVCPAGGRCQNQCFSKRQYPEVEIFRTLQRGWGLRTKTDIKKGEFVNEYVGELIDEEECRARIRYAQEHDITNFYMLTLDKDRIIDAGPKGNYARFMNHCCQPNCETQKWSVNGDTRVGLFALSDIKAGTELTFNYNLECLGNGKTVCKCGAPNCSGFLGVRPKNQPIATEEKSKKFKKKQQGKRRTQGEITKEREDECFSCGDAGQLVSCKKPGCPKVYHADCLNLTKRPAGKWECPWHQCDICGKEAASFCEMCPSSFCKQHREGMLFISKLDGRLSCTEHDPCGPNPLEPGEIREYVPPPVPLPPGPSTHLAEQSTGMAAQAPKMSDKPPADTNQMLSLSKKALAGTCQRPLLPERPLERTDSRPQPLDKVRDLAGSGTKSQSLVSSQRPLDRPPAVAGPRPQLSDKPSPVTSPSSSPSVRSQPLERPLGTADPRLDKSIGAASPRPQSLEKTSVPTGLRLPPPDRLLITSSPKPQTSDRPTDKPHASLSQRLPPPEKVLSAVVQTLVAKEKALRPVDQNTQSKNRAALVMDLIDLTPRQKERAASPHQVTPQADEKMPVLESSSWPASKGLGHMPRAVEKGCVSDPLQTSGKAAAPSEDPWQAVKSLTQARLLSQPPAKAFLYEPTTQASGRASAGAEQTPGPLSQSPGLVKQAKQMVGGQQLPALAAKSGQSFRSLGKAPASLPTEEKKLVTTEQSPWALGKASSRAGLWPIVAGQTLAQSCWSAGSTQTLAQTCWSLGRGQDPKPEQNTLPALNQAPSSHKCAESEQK
# NSD3 = target: T5, NSD3 (Homo sapiens, UniProt Q9BZ95); assay: Global proteomics and immunoblotting of NSD3 in U2OS cells; type: cell-based; conditions: 5 μM, 6 h proteomics, confirmed by immunoblotting
# T5 sequence (Q9BZ95 1-1437): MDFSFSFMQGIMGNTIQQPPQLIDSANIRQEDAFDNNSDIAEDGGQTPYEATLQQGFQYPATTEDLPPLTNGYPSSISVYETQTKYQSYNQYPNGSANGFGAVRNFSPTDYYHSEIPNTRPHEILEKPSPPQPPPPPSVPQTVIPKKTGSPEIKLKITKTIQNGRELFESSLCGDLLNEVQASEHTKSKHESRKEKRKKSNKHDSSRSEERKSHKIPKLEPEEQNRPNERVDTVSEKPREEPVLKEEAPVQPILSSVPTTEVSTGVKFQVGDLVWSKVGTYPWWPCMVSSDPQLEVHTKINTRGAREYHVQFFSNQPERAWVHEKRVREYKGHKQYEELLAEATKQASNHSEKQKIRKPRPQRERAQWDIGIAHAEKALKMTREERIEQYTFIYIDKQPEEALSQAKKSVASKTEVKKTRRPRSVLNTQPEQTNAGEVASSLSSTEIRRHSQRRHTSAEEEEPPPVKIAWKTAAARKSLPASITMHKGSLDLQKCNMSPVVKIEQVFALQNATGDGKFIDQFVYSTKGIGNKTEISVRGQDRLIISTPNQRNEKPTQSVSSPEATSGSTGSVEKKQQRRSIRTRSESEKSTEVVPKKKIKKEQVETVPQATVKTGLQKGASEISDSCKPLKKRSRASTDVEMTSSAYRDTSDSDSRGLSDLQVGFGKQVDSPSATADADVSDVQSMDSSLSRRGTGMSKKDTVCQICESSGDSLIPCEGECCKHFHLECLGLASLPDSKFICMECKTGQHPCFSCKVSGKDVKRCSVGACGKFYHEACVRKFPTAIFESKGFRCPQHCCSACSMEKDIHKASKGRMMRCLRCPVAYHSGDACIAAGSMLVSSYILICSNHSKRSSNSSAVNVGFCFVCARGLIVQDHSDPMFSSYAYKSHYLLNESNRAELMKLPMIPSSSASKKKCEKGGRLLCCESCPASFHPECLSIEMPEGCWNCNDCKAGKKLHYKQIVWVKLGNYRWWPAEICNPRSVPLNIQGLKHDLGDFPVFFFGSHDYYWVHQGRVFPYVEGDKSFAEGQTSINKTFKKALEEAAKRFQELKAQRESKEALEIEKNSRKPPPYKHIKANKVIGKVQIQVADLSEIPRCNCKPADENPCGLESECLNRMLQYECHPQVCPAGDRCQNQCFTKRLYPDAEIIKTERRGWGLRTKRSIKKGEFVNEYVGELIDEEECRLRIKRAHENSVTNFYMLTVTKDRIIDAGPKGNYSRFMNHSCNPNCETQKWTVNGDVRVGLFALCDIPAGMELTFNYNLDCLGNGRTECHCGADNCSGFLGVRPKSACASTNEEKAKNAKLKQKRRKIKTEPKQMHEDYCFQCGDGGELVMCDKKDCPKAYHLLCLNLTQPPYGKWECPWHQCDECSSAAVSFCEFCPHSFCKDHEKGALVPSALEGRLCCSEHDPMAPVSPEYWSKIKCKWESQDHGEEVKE
# NSD2-long [7] = target: T3, NSD2-long; assay: NSD2 immunoblot in KMS11 cells; type: cell-based; conditions: read-out: IB: NSD2-long DC50, 1−60 μM, 6 days
# H3K36me2 [8] = assay: H3K36me2 immunoblot in KMS11 cells; type: cell-based
# H3K36me1 = H3K36me1 immunoblot in KMS11 cells; type: cell-based
# H3K36me3 = H3K36me3 immunoblot in KMS11 cells; type: cell-based
# NSD2 and H3K36me2 [9] = assay: NSD2 and H3K36me2 immunoblot in MM1S cells; type: cell-based; conditions: NSD2 E1099K, 10 μM, 6 days
# NSD2 and H3K36me2 [10] = assay: NSD2 and H3K36me2 immunoblot in RS411 cells; type: cell-based; conditions: RS411, NSD2 E1099K, 10 μM, 6 days
# KMS11 cells [11] = assay: KMS11 CellTiter-Glo luminescence cell viability assay; type: cell-based; conditions: up to 30 μM, 8 days
# MM1S cells = assay: MM1S dose-response treatment and proliferation assay; type: cell-based; conditions: increasing concentrations, 8 days, trypan blue cell count
# MDA-MB-231 = MDA-MB-231 proliferation assay; type: cell-based; conditions: 20 μM, 5 days, confluency
# U2OS = U2OS proliferation assay; type: cell-based; conditions: 20 μM, 5 days, confluency
# HEK293 = HEK293 proliferation assay; type: cell-based; conditions: 20 μM, 5 days, confluency
# KMS11 cells [12] = assay: Adhesion assay in KMS11 cells; type: cell-based; conditions: 25 μM, 14 days, compared to control (UNC8587)
# NSD family members = conditions: immunoblot
structure (smiles),measurement,setting,value
CC(C)C[C@@H](C=O)NC(=O)[C@H](CC(C)C)NC(=O)[C@H](CC(C)C)NC(=O)OCc1ccccc1 [MG132] (Cbz-Leu-Leu-Leu-aldehyde),effect of inhibitor on UNC8153-mediated NSD2 degradation,NSD2 [1],completely ablates NSD2 degradation
NS(=O)(=O)OC[C@@H]1C[C@@H](n2ccc3c(N[C@H]4CCc5ccccc54)ncnc32)C[C@@H]1O [MLN4924],effect of inhibitor on UNC8153-mediated NSD2 degradation,NSD2 [1],prevented NSD2 degradation
NS(=O)(=O)OC[C@H]1C[C@@H](Nc2ccnc3cc(-c4cccc(SC(F)(F)F)c4)nn23)[C@H](O)[C@@H]1O [TAK243],effect of inhibitor on UNC8153-mediated NSD2 degradation,NSD2 [1],prevented NSD2 degradation
O=C1COc2cc(C(=O)N(Cc3ccc(C(=O)Nc4ccncn4)cc3)C3CC3)ccc2N1 [UNC6934],global H3K36me2 levels in KMS11 cells,H3K36me2 [2],remain unaltered
O=C(CCCC[C@@H]1SC[C@@H]2NC(=O)N[C@@H]21)NCCOCCOCCOCCOCCOCCOCCOCCOCCOCCOCCOCCNC(=O)c1ccc(NC(=O)c2ccc(CN(C(=O)c3ccc4c(c3)OCC(=O)N4)C3CC3)cc2)cc1 [UNC7096],binding to NSD2 (in words),NSD2-PWWP1,maintains binding to NSD2
NCCCCCCNC(=O)c1ccc(NC(=O)c2ccc(CN(C(=O)c3ccc4c(c3)OCC(=O)N4)C3CC3)cc2)cc1 [UNC8153],NSD2 degradation 30 min after compound treatment,NSD2 [3]; 3 and 10 μM,~ 40%
same,hook effect in NSD2 reduction,NSD2 [3]; confirmed by immunoblotting,a hook effect occurs at high concentrations
same,extent of degradation of NSD2-long 96 h after a single treatment,NSD2-long [4],above 60%
same,BRET signal between HaloTag-ubiquitin and NanoLuc-NSD2-PWWP1,[5],increased BRET signals
same,selectivity of NSD2 degradation within the measurable proteome,NSD2 [6],NSD2 was selectively degraded
same,degradation of NSD1,NSD1,not degraded
same,degradation of NSD3,NSD3,not degraded
same,DC50,NSD2-long [7],3.41 µM
same,"H3K36me2 levels, time course","H3K36me2 [8]; 20 μM, 2−8 days, loss after 6 days, control 8 days",Significant loss of the H3K36me2 mark
same,"H3K36me2 levels, dose response","H3K36me2 [8]; 1−60 μM, 6 days",dose-dependent reduction of the H3K36me2 mark
same,H3K36me1 level,H3K36me1,increase in H3K36 monomethylation
same,H3K36me3 level,H3K36me3,decreased slightly
same,NSD2 and H3K36me2 modulation in MM1S cells,NSD2 and H3K36me2 [9],similarly responsive
same,NSD2 and H3K36me2 modulation in RS411 cells,NSD2 and H3K36me2 [10],similarly responsive
same,proliferation / cell viability of KMS11 cells,KMS11 cells [11],did not result in a significant change in proliferation
same,proliferation of MM1S cells,MM1S cells,mild antiproliferative effect
same,proliferative potential of MDA-MB-231 cells,MDA-MB-231,no significant changes in proliferative potential
same,proliferative potential of U2OS cells,U2OS,no significant changes in proliferative potential
same,proliferative potential of HEK293 cells,HEK293,no significant changes in proliferative potential
same,cell adhesion to Matrigel,KMS11 cells [12],Significant antiadhesive effects
same,selectivity for NSD2 over other NSD family members in MM1S cells,NSD family members,selectively degrades NSD2 over other NSD family members
